Here are results for 42 compounds from patent publication US9193731B2, “Antimicrobial compounds and methods of making and using the same” (Melinta Therapeutics, Inc., priority 2009, dated 2015).

The subject of the assay is Escherichia coli strain ATCC25922. In words: standard microdilution assay to determine minimum inhibitory concentrations (MICs). To be noted: for E. coli ATCC25922 MIC: Escherichia coli strain ATCC25922, microdilution; for MIC: Escherichia coli, ATCC25922, Escherichia coli strain ATCC25922, microdilution, read-out: E. coli ATCC25922 MIC. Format: cell-based. As for the experimental part:
Minimum inhibitory concentrations (MICs) are determined by the microdilution method, typically in a final volume of 100 microliters, according to protocols outlined by The Clinical and Laboratory Standards Institute [CLSI; formerly the National Committee for Clinical Laboratory Standards (NCCLS)]. See CLSI: Methods for dilution antimicrobial susceptibility tests for bacteria that grow aerobically; approved standard-fifth edition. Wayne, Pa.: NCCLS; 2000. The assays can be also be performed in microtiter trays according to conventional methodologies as published by the CLSI. See CLSI. Methods for Dilution Antimicrobial Susceptibility Tests for Bacteria That Grow Aerobically; Approved Standard—Seventh Edition. CLSI Document M7-A7 [ISBN 1-56238-587-9] CLSI, 940 West Valley Road, Suite 1400, Wayne Pa. 19087-1898 USA, 2006).
The compounds of the present invention were tested for antimicrobial activity. The compounds were run against Escherichia coli strain ATCC25922 using a standard microdilution assay to determine minimum inhibitory concentrations (MICs). […] A “N/A” means that data is unavailable. It will be recognized by one skilled in the art that the compounds can be assessed against other bacterial organisms and that the presentation of data for activity against Escherichia coli is illustrative and in no way is intended to limit the scope of the present invention. The compounds of the present invention can be assayed against a range of other microorganisms depending upon the performance activity desired to be gathered. Furthermore, the “+”, “−”, and “N/A” representation and the selection of a cutoff value of 16 micrograms/ml is also illustrative and in no way is intended to limit the scope of the present invention.
On the technique in general: Dilution methods test growth across graded concentrations, often in twofold steps.

Molecules are shown by their SMILES.

For `CC(CN)CN1CCC(c2cc3cn(-c4ccc(CNCCCNC(=N)N)cc4)c(=O)nc3[nH]2)C1` (mixture of isomers) [Compound 2008a], the “E. coli ATCC25922 MIC” value is given as “+ (a “+” indicates that the compound has an MIC value of 16 micrograms/ml or less)”.
For `CC(CN)CN1CCC(c2cc3cn(-c4ccc(CNCCCNC(=N)N)cc4)c(=O)nc3[nH]2)C1` (mixture of isomers) [Compound 2016a], the “E. coli ATCC25922 MIC” value is recorded as “+ (a “+” indicates that the compound has an MIC value of 16 micrograms/ml or less)”.
Same read-out and setting: for `N=C(N)NCCCNCc1ccc(-n2cc3cc(-c4ccc(S(=O)(=O)N(CC5CCOCC5)C5CCCNC5)cc4)[nH]c3nc2=O)cc1` (single isomer, unassigned) [Compound 844] the value was “+ (a “+” indicates that the compound has an MIC value of 16 micrograms/ml or less)”; for `N=C(N)NCCCNCc1ccc(-n2cc3cc(-c4ccc(S(=O)(=O)N(CC5CCOCC5)C5CCCNC5)cc4)[nH]c3nc2=O)cc1` (single isomer, unassigned) [Compound 845], “+ (a “+” indicates that the compound has an MIC value of 16 micrograms/ml or less)”.
Take `NCc1ccc(-n2cc3cc[nH]c3nc2=O)cc1` [Compound 142]: the minimal inhibitory concentration (MIC) – broadly, the lowest concentration that inhibits growth of the organism – was over 16 µg/mL.
With `NCCCN(CCCN)Cc1ccc(-n2cc3cc[nH]c3nc2=O)cc1` [Compound 154], the minimal inhibitory concentration (MIC) is over 16 µg/mL.
Still for that read-out and setting: the value for `COC(=O)C(N)Cc1cc2cn(-c3ccc(CN(CCCN)CCCN)cc3)c(=O)nc2[nH]1` (stereo not drawn) [Compound 169] was over 16 µg/mL; that for `NCCCN(CCCN)Cc1ccc(-n2cc3cc(-c4ccc(CO)cc4)[nH]c3nc2=O)cc1` [Compound 179] was over 16 µg/mL; that for `NCCCN(CCCN)Cc1ccc(-n2cc3cc(-c4ccc(F)cc4)[nH]c3nc2=O)cc1` [Compound 180] was over 16 µg/mL.
Still for that read-out and setting: for `NCCCN(CCCN)Cc1ccc(-n2cc3cc(Cn4nnc5ccccc54)[nH]c3nc2=O)cc1` [Compound 182] the value was over 16 µg/mL; for `NCCCN(CCCN)Cc1ccc(-n2cc3cc(CCc4ccccc4)[nH]c3nc2=O)cc1` [Compound 183], over 16 µg/mL; for `Cn1cncc1-c1cc2cn(-c3ccc(CN(CCCN)CCCN)cc3)c(=O)nc2[nH]1` [Compound 184], under 16 µg/mL.
Regarding `NCCCN(CCCN)Cc1ccc(-n2cc3cc(-c4ccc(C(=O)N[C@H]5CC[C@H](O)CC5)cc4)[nH]c3nc2=O)cc1` [Compound 192], the MIC was over 16 µg/mL.
Take `NCCCN(CCCN)Cc1ccc(-n2cc3cc(-c4ccc(C(=O)NC5CCOCC5)cc4)[nH]c3nc2=O)cc1` [Compound 193]: the MIC is over 16 µg/mL.
Regarding `N=C(N)NCCCN(CCCN)Cc1ccc(-n2cc3cc[nH]c3nc2=O)cc1` [Compound 194], the MIC is under 16 µg/mL.
Turning to `NCCCN(CCCN)Cc1ccc(-n2cc3cc(-c4ccc(C(=O)Nc5cccnc5)cc4)[nH]c3nc2=O)cc1` [Compound 195], the MIC was over 16 µg/mL.
On the same count and under the same terms, for `NCCCN(CCCN)Cc1ccc(-n2cc3cc(-c4ccc(C(=O)NC5CN6CCC5CC6)cc4)[nH]c3nc2=O)cc1` (stereo not drawn) [Compound 196] the value was under 16 µg/mL.
As to `NCCCN(CCCN)Cc1ccc(-n2cc3cc(-c4ccc(C(=O)NC5CCNCC5)cc4)[nH]c3nc2=O)cc1` [Compound 197], the minimal inhibitory concentration (MIC) is under 16 µg/mL.
On the same count and under the same terms, the value for `NCCCN(CCCN)Cc1ccc(-n2cc3cc(-c4ccc(S(=O)(=O)NC5CCNCC5)cc4)[nH]c3nc2=O)cc1` [Compound 198] was under 16 µg/mL; that for `NCCCN(CCCN)Cc1ccc(-n2cc3cc(-c4ccc(S(=O)(=O)NC5CCNCC5)cc4F)[nH]c3nc2=O)cc1` [Compound 200] was under 16 µg/mL; that for `NCCCN(CCCN)Cc1ccc(-n2cc3cc(-c4ccc(S(=O)(=O)NC5CN6CCC5CC6)cc4)[nH]c3nc2=O)cc1` (stereo not drawn) [Compound 201] was under 16 µg/mL.
Same read-out and setting: for `CN1CCC(NC(=O)c2ccc(-c3cc4cn(-c5ccc(CN(CCCN)CCCN)cc5)c(=O)nc4[nH]3)cc2)CC1` [Compound 204] the value was under 16 µg/mL; for `CN1C2CCC1CC(NC(=O)c1ccc(-c3cc4cn(-c5ccc(CN(CCCN)CCCN)cc5)c(=O)nc4[nH]3)cc1)C2` (stereo not drawn) [Compound 206], under 16 µg/mL; for `N=C(N)NCCCN(CCCN)Cc1ccc(-n2cc3cc(-c4ccc(C(=O)NC5CN6CCC5CC6)cc4)[nH]c3nc2=O)cc1` (stereo not drawn) [Compound 216], under 16 µg/mL.
On the same count and under the same terms, for `N=C(N)NCCCN(CCCN)Cc1ccc(-n2cc3cc(-c4ccc(C(=O)NC5CCNCC5)cc4)[nH]c3nc2=O)cc1` [Compound 217] the value was under 16 µg/mL; for `NCCCN(CCCN)Cc1ccc(-n2cc3cc(-c4ccc(C(=O)O)cc4)[nH]c3nc2=O)cc1` [Compound 218], over 16 µg/mL; for `N=C(N)NCCCN(CCCN)Cc1ccc(-n2cc3cc(-c4ccc(S(=O)(=O)NC5CN6CCC5CC6)cc4)[nH]c3nc2=O)cc1` (stereo not drawn) [Compound 219], under 16 µg/mL.
Consider `N=C(N)NCCCN(CCCN)Cc1ccc(-n2cc3cc(-c4ccc(S(=O)(=O)NC5CCNCC5)cc4)[nH]c3nc2=O)cc1` [Compound 220], for which the MIC was under 16 µg/mL.
Still for that read-out and setting: the value for `N=C(N)NCCCN(CCCN)Cc1ccc(-n2cc3cc(-c4ccc(S(=O)(=O)NC5CCNCC5)cc4F)[nH]c3nc2=O)cc1` [Compound 221] was under 16 µg/mL; that for `NCc1ccc(-n2cc3cc(-c4ccc(C(=O)NC5CCNCC5)cc4)[nH]c3nc2=O)cc1` [Compound 224] was under 16 µg/mL; that for `NCCCN(CCCN)Cc1ccc(-n2cc3cc(-c4ccc(C(=O)N(Cc5cc(F)cc(F)c5)C5CCNCC5)cc4)[nH]c3nc2=O)cc1` [Compound 225] was under 16 µg/mL.
Consider `Cc1cc(CN(C(=O)c2ccc(-c3cc4cn(-c5ccc(CN(CCCN)CCCN)cc5)c(=O)nc4[nH]3)cc2)C2CCNCC2)no1` [Compound 226], for which the MIC was over 16 µg/mL.
Still for that read-out and setting: for `NCCCNCc1ccc(-n2cc3cc(-c4ccc(C(=O)NC5CCNCC5)cc4)[nH]c3nc2=O)cc1` [Compound 227] the value was under 16 µg/mL.
`NC(=O)/N=C(\N)NCCCNCc1ccc(-n2cc3cc(-c4ccc(C(=O)NC5CCNCC5)cc4)[nH]c3nc2=O)cc1` [Compound 228]: the MIC was under 16 µg/mL.
Regarding `NC(=O)/N=C(/N)NCCNCc1ccc(-n2cc3cc(-c4ccc(C(=O)NC5CCNCC5)cc4)[nH]c3nc2=O)cc1` [Compound 229], the MIC was under 16 µg/mL.
As to `NCCCN(CCCN)Cc1ccc(-n2cc3cc(-c4ccc(S(=O)(=O)N(CC(=O)O)C5CCNCC5)cc4)[nH]c3nc2=O)cc1` [Compound 230], the MIC was over 16 µg/mL.
On the same count and under the same terms, the value for `NCCCN(CCCN)Cc1ccc(-n2cc3cc(-c4ccc(S(=O)(=O)N5CCN6CCC5CC6)c(F)c4)[nH]c3nc2=O)cc1` [Compound 231] was under 16 µg/mL; that for `CSCCN(C1CCNCC1)S(=O)(=O)c1ccc(-c2cc3cn(-c4ccc(CN(CCCN)CCCN)cc4)c(=O)nc3[nH]2)cc1` [Compound 232] was under 16 µg/mL.
As for `NCCCN(CCCN)Cc1ccc(-n2cc3cc(-c4ccc(S(=O)(=O)N(CCN5CCOCC5)C5CCNCC5)cc4)[nH]c3nc2=O)cc1` [Compound 233], the MIC is under 16 µg/mL.
In the case of `N=C(N)NCCCNCc1ccc(-n2cc3cc(-c4ccc(C(=O)NC5CCNCC5)cc4)[nH]c3nc2=O)cc1` [Compound 234], the MIC is under 16 µg/mL.
Regarding `NCCCN(CCCN)Cc1ccc(-n2cc3cc(-c4ccc(S(=O)(=O)N(Cc5ccc(Cl)c(Cl)c5)C5CCNCC5)cc4)[nH]c3nc2=O)cc1` [Compound 235], the MIC is under 16 µg/mL.
Take `NCCCN(CCCN)Cc1ccc(-n2cc3cc(-c4ccc(S(=O)(=O)N(Cc5ccc(SC(F)(F)F)cc5)C5CCNCC5)cc4)[nH]c3nc2=O)cc1` [Compound 236]: the MIC was under 16 µg/mL.
